Assay [1] has as its target T1, HCV polymerase (Hepatitis C virus genotype 1b, UniProt Q9WMX2).
T1 construct: (His)6 (C)
The experiment in a line: biochemical. The conditions noted are these: polymerase assay of Biological Example 1; read-out: NS5B polymerase IC50.

Assay [2] concerns HCV replicon I389luc-ubi-neo/NS3-3'/ET in ET (Huh-lucubineo-ET) cells. As to the kind of experiment: Replicon assay (Biological Example 2), luciferase read-out. The conditions noted are these: Hepatitis C virus, luciferase activity 48 hours after compound addition. It is filed as cell-based. As for the experimental part:
A cell line, ET (Huh-lucubineo-ET) is used for screening of compounds for inhibiting HCV RNA dependent RNA polymerase. The ET cell line is stably transfected with RNA transcripts harboring a I389luc-ubi-neo/NS3-3′/ET; replicon with firefly luciferase-ubiquitin-neomycin phosphotransferase fusion protein and EMCV-IRES driven NS3-5B polyprotein containing the cell culture adaptive mutations (E1202G; […]; K1846T) (Krieger at al, 2001 and unpublished). The ET cells are grown in DMEM (Dulbeco's Modified Eagle's Medium), supplemented with 10% fetal calf serum, 2 mM Glutamine, Penicillin (100 IU/mL)/Streptomycin (100 μg/mL), 1× nonessential amino acids, and 250 μg/mL G418 (“Geneticin”). Reagents are all available through Life Technologies (Bethesda, Md.). The cells are plated at 0.5-1.0×10^4 cells/well in the 96 well plates and incubated for 24 hrs before adding test compound. The compounds are added to the cells to achieve a final concentration of 0.1 nM to 50 μM and a final DMSO (dimethylsulfoxide) concentration of 0.5%. Luciferase activity is measured 48 hours later by adding a lysis buffer and the substrate (Catalog number Glo-lysis buffer E2661 and Bright-Glo luciferase system E2620 Promega, Madison, Wis.). Cells should not be too confluent during the assay. Percent inhibition of replication data is plotted relative to no compound control. To determine the EC50 (effective concentration at which 50% of the maximum inhibition is observed), a 10 point, 3-fold serial dilution for each compound is used, which spans a concentration range of 1000 fold. EC50 values were calculated by fitting % inhibition at each concentration to the following equation:
% inhibition=100%/[(EC50/[I])^b+1]
where b is Hill's coefficient.

This is an account of results in patent US20120015907A1, “Furopyridine compounds and uses thereof” (NOVARTIS AG, priority 2010, published 2012).

pIC50: −log10 of the molar value.

On to `CNC(=O)c1c(-c2ccc(C3CC3)cc2F)oc2nc(N(C)S(C)(=O)=O)c(C3CC3)cc12` [Example 2.98, 5-cyclopropyl-2-(4-cyclopropyl-2-fluorophenyl)-N-methyl-6-(N-methylmethylsulfonamido)furo[2,3-b]pyridine-3-carboxamide], for which the negative-log IC50 (pIC50) in assay [1] is 8.30; in assay [2], ≥ 7.00.
On the same counts, the results for `CNC(=O)c1c(-c2ccc(F)cc2)oc2nc(N(C)S(C)(=O)=O)c(CCCCC(=O)O)cc12` [Example 4, 5-(2-(4-fluorophenyl)-3-(methylcarbamoyl)-6-(N-methylmethylsulfonamido)furo[2,3-b]pyridin-5-yl)pentanoic acid] are 7.31 and ≤ 5.30.
On the same counts, the results for `CNC(=O)c1c(-c2ccc(F)cc2)oc2nc(N(C)S(C)(=O)=O)c(CCCC(=O)NS(C)(=O)=O)cc12` [Example 4.5, 2-(4-fluorophenyl)-N-methyl-6-(N-methylmethylsulfonamido)-5-(4-(methylsulfonamido)-4-oxobutyl)furo[2,3-b]pyridine-3-carboxamide] are 6.69 and ≤ 5.30.
For the compound `CNC(=O)c1c(-c2ccc(F)cc2)oc2nc(N(C)S(C)(=O)=O)c(CCCCC(=O)N3CCC[C@H]3C(=O)O)cc12` [Example 4.7, (S)-1-(5-(2-(4-fluorophenyl)-3-(methylcarbamoyl)-6-(N-methylmethylsulfonamido)furo[2,3-b]pyridin-5-yl)pentanoyl)pyrrolidine-2-carboxylic acid], the pIC50 in assay [1] was 7.29; in assay [2], ≤ 5.30.
Take `CNC(=O)c1c(-c2ccc(F)cc2)oc2nc(N(C)S(C)(=O)=O)c(CCCCC(C)(O)C(C)(C)O)cc12` (stereo not shown) [Example 4.9, 5-(5,6-dihydroxy-5,6-dimethylheptyl)-2-(4-fluorophenyl)-N-methyl-6-(N-methylmethylsulfonamido)furo[2,3-b]pyridine-3-carboxamide]: the results for the negative logarithm of the IC50 (pIC50) in assay [1] and in assay [2] were 7.12 and ≥ 7.00, respectively.
On to `CNC(=O)c1c(-c2ccc(F)cc2)oc2nc(N(C)S(C)(=O)=O)c(CCCCS(=O)(=O)CCC(=O)O)cc12` [Example 4.91, 3-(4-(2-(4-fluorophenyl)-3-(methylcarbamoyl)-6-(N-methylmethylsulfonamido)furo[2,3-b]pyridin-5-yl)butylsulfonyl)propanoic acid], for which the pIC50 in assay [1] was 8.00; in assay [2] it was ≤ 5.30.
On the same counts, the results for `CNC(=O)c1c(-c2ccc(F)cc2)oc2nc(N(C)S(C)(=O)=O)c(C#CCCC(=O)O)cc12` [Example 5, 5-(2-(4-fluorophenyl)-3-(methylcarbamoyl)-6-(N-methylmethylsulfonamido)furo[2,3-b]pyridin-5-yl)pent-4-ynoic acid] are 6.59 and ≤ 5.30.
The like results for `CCc1cc2c(C(=O)NC)c(-c3ccc(F)cc3)oc2nc1N(C)S(C)(=O)=O` [Example 6, 5-Ethyl-2-(4-fluoro-phenyl)-6-(methanesulfonyl-methyl-amino)-furo[2,3-b]pyridine-3-carboxylic acid methylamide] were, in that order, 7.70 and ≥ 7.00.
On the same counts, the results for `CNC(=O)c1c(-c2ccc(F)cc2)oc2nc(N(C)S(C)(=O)=O)c(C(C)(O)CO)cc12` (stereo not shown) [Example 9, 5-(1,2-dihydroxypropan-2-yl)-2-(4-fluorophenyl)-N-methyl-6-(N-methylmethylsulfonamido)furo[2,3-b]pyridine-3-carboxamide] are 5.63 and ≤ 5.30.
On to `CNC(=O)c1c(-c2ccc(Oc3ccccc3)cc2)oc2nc(N(C)S(C)(=O)=O)c(C3CC3)cc12` [Example 16, 5-cyclopropyl-N-methyl-6-(N-methylmethylsulfonamido)-2-(4-phenoxyphenyl)furo[2,3-b]pyridine-3-carboxamide], for which the negative logarithm of the IC50 (pIC50) in assay [1] was 8.52; in assay [2], ≥ 7.00.
Consider `CNC(=O)c1c(-c2ccc(F)cc2)oc2nc(N(CCCC(=O)O)S(C)(=O)=O)c(I)cc12` [Example 18.95, 4-(N-(2-(4-fluorophenyl)-5-iodo-3-(methylcarbamoyl)furo[2,3-b]pyridin-6-yl)methylsulfonamido)butanoic acid], for which the results for the negative-log IC50 (pIC50) in assay [1] and in assay [2] were 6.95 and ≤ 5.30, respectively.
The like results for `CNC(=O)c1c(-c2ccc(F)cc2)oc2nc(N(CCCC(=O)NS(C)(=O)=O)S(C)(=O)=O)c(I)cc12` [Example 18.96, 2-(4-fluorophenyl)-5-iodo-N-methyl-6-(N-(4-(methylsulfonamido)-4-oxobutyl)methylsulfonamido)furo[2,3-b]pyridine-3-carboxamide] were, in that order, 7.47 and ≤ 5.30.
On the same counts, the results for `CNC(=O)c1c(-c2ccc(F)cc2)oc2nc(N(CCCC3CCCS3(=O)=O)S(C)(=O)=O)c(I)cc12` (stereo not shown) [Example 18.97, 6-{[3-(1,1-Dioxo-tetrahydrothiophen-2-yl)-propyl]-methanesulfonyl-amino}-2-(4-fluoro-phenyl)-5-iodo-furo[2,3-b]pyridine-3-carboxylic acid methylamide] are 7.49 and ≥ 7.00.
On the same counts, the results for `CNC(=O)c1c(-c2ccc(Cl)cc2)oc2nc(N(CCCC3CCCS3(=O)=O)S(C)(=O)=O)c(I)cc12` (stereo not shown) [Example 18.98, 2-(4-Chloro-phenyl)-6-{[3-(1,1-dioxo-tetrahydrothiophen-2-yl)-propyl]-methanesulfonyl-amino}-5-iodo-furo[2,3-b]pyridine-3-carobxylic acid methylamide] are 8.40 and ≥ 7.00.
As for `CNC(=O)c1c(-c2ccc(C)cc2)oc2nc(N(CCCC3CCCS3(=O)=O)S(C)(=O)=O)c(I)cc12` (stereo not shown) [Example 18.99, 6-{[3-(1,1-Dioxo-tetrahydrophiophen-2-yl)-propyl]-methanesulfonyl-amino}-5-iodo-2-p-totyl-furo[2,3-b]pyridine-3-carboxylic acid methylamide], the negative-log IC50 (pIC50) in assay [1] was 8.30; in assay [2], ≥ 7.00.
On the same counts, the results for `CNC(=O)c1c(-c2ccc(C)cc2)oc2nc(N(CCCS(C)(=O)=O)S(C)(=O)=O)c(I)cc12` [Example 18.994, 5-iodo-N-methyl-6-(N-(3-(methylsulfonyl)propyl)methylsulfonamido)-2-p-tolylfuro[2,3-b]pyridine-3-carboxamide] are 7.85 and ≥ 7.00.
On the same counts, the results for `CNC(=O)c1c(-c2ccc(Cl)cc2)oc2nc(N(CCCCS(C)(=O)=O)S(C)(=O)=O)c(I)cc12` [Example 18.995, 2-(4-chlorophenyl)-5-iodo-N-methyl-6-(N-(4-(methylsulfonyl)butyl)methylsulfonamido)furo[2,3-b]pyridine-3-carboxamide] are 7.85 and ≥ 7.00.
Consider `CNC(=O)c1c(-c2ccc(C)cc2)oc2nc(N(CCCCS(C)(=O)=O)S(C)(=O)=O)c(I)cc12` [Example 18.996, 5-iodo-N-methyl-6-(N-(4-(methylsulfonyl)butyl)methylsulfonamido)-2-p-tolylfuro[2,3-b]pyridine-3-carboxamide], for which the pIC50 in assay [1] is 8.40; in assay [2] it was ≥ 7.00.
Consider `CNC(=O)c1c(-c2ccc(F)cc2)oc2nc(N(CCCCS(C)(=O)=O)S(C)(=O)=O)c(I)cc12` [Example 18.997, 2-(4-fluorophenyl)-5-iodo-N-methyl-6-(N-(4-(methylsulfonyl)butyl)methylsulfonamido)furo[2,3-b]pyridine-3-carboxamide], for which the results for the negative logarithm of the IC50 (pIC50) in assay [1] and in assay [2] were 7.66 and ≥ 7.00, respectively.
On the same counts, the results for `CNC(=O)c1c(-c2ccc(F)cc2)oc2nc(N(CCCCC(=O)O)S(C)(=O)=O)c(I)cc12` [Example 19, 5-{[2-(4-Fluoro-phenyl)-5-iodo-3-methylcarbamoyl-furo[2,3-b]pyridin-6-yl]-methanesulfonyl-amino}-pentanoic acid] are 8.05 and ≤ 5.30.
On to `CCc1cc2c(C(=O)NC)c(-c3ccc(F)cc3)oc2nc1N(CCCS(=O)(=O)c1ccccc1)S(C)(=O)=O` [Example 21.97, 5-ethyl-2-(4-fluorophenyl)-N-methyl-6-(N-(3-(phenylsulfonyl)propyl)methylsulfonamido)furo[2,3-b]pyridine-3-carboxamide], for which the values for the pIC50 in assay [1] and in assay [2] were 8.52 and ≥ 7.00, respectively.
On the same counts, the results for `CCc1cc2c(C(=O)NC)c(-c3ccc(F)cc3)oc2nc1N(Cc1cccc(C#N)c1)S(C)(=O)=O` [Example 21.99, 6-(N-(3-cyanobenzyl)methylsulfonamido)-5-ethyl-2-(4-fluorophenyl)-N-methylfuro[2,3-b]pyridine-3-carboxamide] are 5.34 and ≤ 5.30.
Turning to `CCc1cc2c(C(=O)NC)c(-c3ccc(F)cc3)oc2nc1N(CCCS(C)(=O)=O)S(C)(=O)=O` [Example 21.992, 5-ethyl-2-(4-fluorophenyl)-N-methyl-6-(N-(3-(methylsulfonyl)propyl)methylsulfonamido)furo[2,3-b]pyridine-3-carboxamide], the negative-log IC50 (pIC50) was 7.19 in assay [1] and ≥ 7.00 in assay [2].
